Data reported in PubChem BioAssay AID2060896 (Molecular Pharmacology Branch, DTP, NCI, 2025).

System: 941728-121-R-J1-PDC complex spheroid viability
Experiment: Anticancer human tumor 941728-121-R-J1-PDC patient-derived lung adenocarcinoma cell line growth inhibition [RAS]
Details: for IC50: curve of first compound; for viability, T/C: stronger effect = lower value
How it was run: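 Tumour cells grown as complex spheroids with HUVEC endothelial cells and mesenchymal stem cells, treated with RAS pathway inhibitor combinations. Each agent spans half-log steps from near clinical Cmax, or 10 microM where Cmax is unknown.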
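Note: spheroids exposed to compounds for 7 days before readout.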
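Throughout, for viability, T/C: 100% = DMSO vehicle control viability.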

CCc1c2c(nc3ccc(O)cc13)-c1cc3c(c(=O)n1C2)COC(=O)[C@]3(O)CC + C=CC(=O)N1CCN(c2nc(OCC3CCCN3C)nc3c(F)c(-c4nc(N)cc(C)c4C(F)(F)F)c(Cl)cc23)C(C)C1 gave an IC50 (second compound 0.00316 µM) of less than 0.949 nM, an IC50 (second compound 0.01 µM) of less than 0.949 nM and an IC50 (second compound 0.0316 µM) of less than 0.949 nM. The IC50 (second compound 0.1 µM) was less than 0.949 nM, the IC50 (second compound 0.316 µM) was less than 0.949 nM and the IC50 (second compound 1 µM) was less than 0.949 nM. The viability, T/C (second compound 0.00316 µM, first compound 0.000949 µM) was 21.6%, the viability, T/C (second compound 0.00316 µM, first compound 0.003 µM) was 18.7% and the viability, T/C (second compound 0.00316 µM, first compound 0.00949 µM) was 14.7%. For the same compound, the viability, T/C (second compound 0.00316 µM, first compound 0.03 µM) was 13.7%, the viability, T/C (second compound 0.00316 µM, first compound 0.0949 µM) was 12.1% and the viability, T/C (second compound 0.00316 µM, first compound 0.3 µM) was 8.13%. It also gave a viability, T/C (second compound 0.01 µM, first compound 0.000949 µM) of 18.9%, a viability, T/C (second compound 0.01 µM, first compound 0.003 µM) of 15.6% and a viability, T/C (second compound 0.01 µM, first compound 0.00949 µM) of 20.6%. It also gave a viability, T/C (second compound 0.01 µM, first compound 0.03 µM) of 13.1%, a viability, T/C (second compound 0.01 µM, first compound 0.0949 µM) of 11.4% and a viability, T/C (second compound 0.01 µM, first compound 0.3 µM) of 7.95%. It also gave a viability, T/C (second compound 0.0316 µM, first compound 0.000949 µM) of 18.3%, a viability, T/C (second compound 0.0316 µM, first compound 0.003 µM) of 16.5% and a viability, T/C (second compound 0.0316 µM, first compound 0.00949 µM) of 13.8%. It also gave a viability, T/C (second compound 0.0316 µM, first compound 0.03 µM) of 15.1%, a viability, T/C (second compound 0.0316 µM, first compound 0.0949 µM) of 11.7% and a viability, T/C (second compound 0.0316 µM, first compound 0.3 µM) of 7.67%. It also gave a viability, T/C (second compound 0.1 µM, first compound 0.000949 µM) of 16.3%, a viability, T/C (second compound 0.1 µM, first compound 0.003 µM) of 17% and a viability, T/C (second compound 0.1 µM, first compound 0.00949 µM) of 15.1%. It also gave a viability, T/C (second compound 0.1 µM, first compound 0.03 µM) of 12.6%, a viability, T/C (second compound 0.1 µM, first compound 0.0949 µM) of 12.4% and a viability, T/C (second compound 0.1 µM, first compound 0.3 µM) of 8.11%. It also gave a viability, T/C (second compound 0.316 µM, first compound 0.000949 µM) of 18.3%, a viability, T/C (second compound 0.316 µM, first compound 0.003 µM) of 15.8% and a viability, T/C (second compound 0.316 µM, first compound 0.00949 µM) of 13.7%. It also gave a viability, T/C (second compound 0.316 µM, first compound 0.03 µM) of 12.2%, a viability, T/C (second compound 0.316 µM, first compound 0.0949 µM) of 11.7% and a viability, T/C (second compound 0.316 µM, first compound 0.3 µM) of 6.82%. The viability, T/C (second compound 1 µM, first compound 0.000949 µM) was 17.1%, the viability, T/C (second compound 1 µM, first compound 0.003 µM) was 15.4% and the viability, T/C (second compound 1 µM, first compound 0.00949 µM) was 13.8%. The viability, T/C (second compound 1 µM, first compound 0.03 µM) was 13.7%, the viability, T/C (second compound 1 µM, first compound 0.0949 µM) was 14.8% and the viability, T/C (second compound 1 µM, first compound 0.3 µM) was 7.83%.

Work on C=CC(=O)Nc1cc(Nc2nccc(-c3cn(C)c4ccccc34)n2)c(OC)cc1N(C)CCN(C)C + CCn1c(-c2cc(N3CCN(C)CC3)cnc2C(C)OC)c2c3cc(ccc31)-c1csc(n1)CC(NC(=O)C1CC1C)C(=O)N1CCCC(N1)C(=O)OCC(C)(C)C2 yielded an IC50 (second compound 0.000949 µM) of less than 3.16 nM, an IC50 (second compound 0.003 µM) of less than 3.16 nM and an IC50 (second compound 0.00949 µM) of less than 3.16 nM. The IC50 (second compound 0.03 µM) was less than 3.16 nM, the IC50 (second compound 0.0949 µM) was less than 3.16 nM and the IC50 (second compound 0.3 µM) was less than 3.16 nM. The viability, T/C (second compound 0.000949 µM, first compound 0.00316 µM) was 29.3%, the viability, T/C (second compound 0.000949 µM, first compound 0.01 µM) was 29.5% and the viability, T/C (second compound 0.000949 µM, first compound 0.0316 µM) was 22.1%. The viability, T/C (second compound 0.000949 µM, first compound 0.1 µM) was 23.4%, the viability, T/C (second compound 0.000949 µM, first compound 0.316 µM) was 24.8% and the viability, T/C (second compound 0.000949 µM, first compound 1 µM) was 14%. For the same compound, the viability, T/C (second compound 0.003 µM, first compound 0.00316 µM) was 25.4%, the viability, T/C (second compound 0.003 µM, first compound 0.01 µM) was 20.8% and the viability, T/C (second compound 0.003 µM, first compound 0.0316 µM) was 17.2%. For the same compound, the viability, T/C (second compound 0.003 µM, first compound 0.1 µM) was 18.8%, the viability, T/C (second compound 0.003 µM, first compound 0.316 µM) was 15.5% and the viability, T/C (second compound 0.003 µM, first compound 1 µM) was 8.05%. It also gave a viability, T/C (second compound 0.00949 µM, first compound 0.00316 µM) of 16.4%, a viability, T/C (second compound 0.00949 µM, first compound 0.01 µM) of 15% and a viability, T/C (second compound 0.00949 µM, first compound 0.0316 µM) of 14.4%. It also gave a viability, T/C (second compound 0.00949 µM, first compound 0.1 µM) of 14.4%, a viability, T/C (second compound 0.00949 µM, first compound 0.316 µM) of 13.7% and a viability, T/C (second compound 0.00949 µM, first compound 1 µM) of 9.82%. The viability, T/C (second compound 0.03 µM, first compound 0.00316 µM) was 15.8%, the viability, T/C (second compound 0.03 µM, first compound 0.01 µM) was 14.8% and the viability, T/C (second compound 0.03 µM, first compound 0.0316 µM) was 15.7%. For the same compound, the viability, T/C (second compound 0.03 µM, first compound 0.1 µM) was 14.6%, the viability, T/C (second compound 0.03 µM, first compound 0.316 µM) was 10.7% and the viability, T/C (second compound 0.03 µM, first compound 1 µM) was 12%. It also gave a viability, T/C (second compound 0.0949 µM, first compound 0.00316 µM) of 12.9%, a viability, T/C (second compound 0.0949 µM, first compound 0.01 µM) of 14.7% and a viability, T/C (second compound 0.0949 µM, first compound 0.0316 µM) of 14.6%. For the same compound, the viability, T/C (second compound 0.0949 µM, first compound 0.1 µM) was 16.5%, the viability, T/C (second compound 0.0949 µM, first compound 0.316 µM) was 10.3% and the viability, T/C (second compound 0.0949 µM, first compound 1 µM) was 13.9%. The viability, T/C (second compound 0.3 µM, first compound 0.00316 µM) was 13.1%, the viability, T/C (second compound 0.3 µM, first compound 0.01 µM) was 14.1% and the viability, T/C (second compound 0.3 µM, first compound 0.0316 µM) was 15%. The viability, T/C (second compound 0.3 µM, first compound 0.1 µM) was 12.4%, the viability, T/C (second compound 0.3 µM, first compound 0.316 µM) was 10.7% and the viability, T/C (second compound 0.3 µM, first compound 1 µM) was 11.6%.
